Measured values from patent EP1148124A1 (priority 1999, dated 2000).

System: aryl hydrocarbon receptor
Experiment: Reporter assay (No. 1), ligand responsive reporter gene (firefly luciferase, pGV-Ya-XREx5), clone of Example 2
Format: cell-based, mouse
Conditions: about 40 hours; for Amount of luminescence by firefly luciferase (from pGV-Ya-XREx5) Ratio: ratio to 0 pg/ml
Excerpt: Separately, plasmid pGV-Ya-XREx5 (ligand responsive reporter gene containing plasmid) constructed in Example 1 was digested with Bam HI. Further, plasmid pRL-TK (cell number reporter gene containing plasmid; marketed by Toyo Ink) containing the sea pansy luciferase gene used as the cell number reporter gene was digested with Bam HI, and neomycin resistance (aminoglycoside phosphotransferase) gene containing plasmid pRc/RSV (available from INVITROGEN) was digested with Hind III. These three digested plasmids, i.e., Bam HI digested pGV-Ya-XREx5 (2.8 µg), Bam HI digested pRL-TK (2.8 µg), and Hind III digested pRc/RSV (0.5 µg), were then mixed with 300 µl of αMEM medium (mixture A), while 36 µl of lipofectin (available from GIBCO-BRL) was mixed with 300 µl of αMEM medium (mixture B). After being left at room temperature for 30 minutes, mixtures A and B were combined together and left at room temperature for 10 minutes. The Hepa1clc7 cells cultured overnight as described above were then washed once with αMEM medium, to which there was added a solution prepared by adding and mixing additional 5.4 ml of αMEM medium to the above mixture (A + B). Culturing of the resulting mixture was carried out for 5 hours. The medium was then replaced with 10% serum containing αMEM medium, followed by further culturing overnight. Subsequently, the cells were scratched from the petri dishes and collected, and the collected cells were suspended in 10% serum containing αMEM medium to have the total volume of 100 ml. The resulting cell suspension was plated on 96 well plates at a ratio of 100 µl/well. After these plates were cultured overnight, a medium prepared by dissolving geneticin (hereinafter referred to as "G418") in 10% serum containing αMEM medium to have a concentration of 1.6 mg/ml was added at a ratio of 100 µl/well (G418 final concentration 800 µg/ml). Culturing was further continued for 3 weeks, during which the medium was replaced with 10% serum containing αMEM medium containing 800 µg/ml G418 at a rate of once per week. The volume of the medium was set at 200 µl/well. After said 3 weeks, cells were scratched from the wells in which colony formation had been observed, and collected (for 192 wells), and the collected cells were divided into three and independently plated on different plates, followed by continuous culturing for 4 days. To the first plate, only DMSO was added (solvent control), and to the second plate, 3-methylcholanthrene (hereinafter referred to as "3-MC") dissolved in DMSO was added so that the final concentration of 3-MC in the second plate came to 10 µM per well. The first and second plates were then cultured overnight. The third plate was further cultured as the master plate without any addition. From each well of each plate, to which DMSO or 3-MC had been added, the medium was removed, and the wells were washed twice with PBS(-) (sodium chloride, 8000 mg/l; potassium chloride, 200 mg/l; sodium monohydrogenphosphate (anhydrous), 1150 mg/l; […] dihydrogenphosphate (anhydrous), 200 mg/l; marketed by Nissui Pharmaceutical). A 5-fold diluted cell lysis buffer of PicaGene dual kit (marketed by Toyo Ink) was added to the wells in 15 µl/well, followed by leaving the plates at room temperature for 30 minutes or longer to cause cell lysis, to give cell extracts. These plates were set on a luminometer LB96P with an automatic enzyme substrate injector (available from Berthold), and PicaGene luminescence reagent II and sea pansy luminescence reagent (PicaGene dual kit, marketed by Toyo Ink) were automatically dispensed each in 50 µl, followed by continuous measurement for the amount of luminescence.
The clone screened in Example 2 was plated on 96-well plates at a ratio of 40,000 cells/well, followed by culturing overnight. […]

Clc1cc2c(cc1Cl)Oc1cc(Cl)c(Cl)cc1O2 [TCDD, 2,3,7,8-tetrachlorodibenzo-p-dioxin]
Amount of luminescence by firefly luciferase (from pGV-Ya-XREx5) Measured value (final conc. 0.02 pg/ml): 0.517 x 10^4 | Amount of luminescence by firefly luciferase (from pGV-Ya-XREx5) Ratio (final conc. 0.02 pg/ml): 1.1 | Amount of luminescence by firefly luciferase (from pGV-Ya-XREx5) Measured value (final conc. 0.2 pg/ml): 0.532 x 10^4 | Amount of luminescence by firefly luciferase (from pGV-Ya-XREx5) Ratio (final conc. 0.2 pg/ml): 1.1 | Amount of luminescence by firefly luciferase (from pGV-Ya-XREx5) Measured value (final conc. 2 pg/ml): 0.873 x 10^4 | Amount of luminescence by firefly luciferase (from pGV-Ya-XREx5) Ratio (final conc. 2 pg/ml): 1.8 | Amount of luminescence by firefly luciferase (from pGV-Ya-XREx5) Measured value (final conc. 20 pg/ml): 3.14 x 10^4 | Amount of luminescence by firefly luciferase (from pGV-Ya-XREx5) Ratio (final conc. 20 pg/ml): 6.5 | Amount of luminescence by firefly luciferase (from pGV-Ya-XREx5) Measured value (final conc. 200 pg/ml): 4.46 x 10^4 | Amount of luminescence by firefly luciferase (from pGV-Ya-XREx5) Ratio (final conc. 200 pg/ml): 9.2 | Amount of luminescence by firefly luciferase (from pGV-Ya-XREx5) Measured value (final conc. 2000 pg/ml): 4.17 x 10^4 | Amount of luminescence by firefly luciferase (from pGV-Ya-XREx5) Ratio (final conc. 2000 pg/ml): 8.6 | Amount of luminescence by firefly luciferase (from pGV-Ya-XREx5) Measured value (final conc. 20000 pg/ml): 4.49 x 10^4 | Amount of luminescence by firefly luciferase (from pGV-Ya-XREx5) Ratio (final conc. 20000 pg/ml): 9.2
